What was measured:
DDR2 wild-type = molecular target: T1, DDR2 wild-type (Homo sapiens, UniProt Q16832); assay: Radiometric protein kinase assay (33PanQuinase Activity Assay), DDR2 wild-type; format: biochemical; settings: ATP 1.0 μM
T1 construct: either as full-length or enzymatically active fragments; purchased ProQinase GmbH (Freiburg, Germany)
T1 sequence (Q16832 22-855): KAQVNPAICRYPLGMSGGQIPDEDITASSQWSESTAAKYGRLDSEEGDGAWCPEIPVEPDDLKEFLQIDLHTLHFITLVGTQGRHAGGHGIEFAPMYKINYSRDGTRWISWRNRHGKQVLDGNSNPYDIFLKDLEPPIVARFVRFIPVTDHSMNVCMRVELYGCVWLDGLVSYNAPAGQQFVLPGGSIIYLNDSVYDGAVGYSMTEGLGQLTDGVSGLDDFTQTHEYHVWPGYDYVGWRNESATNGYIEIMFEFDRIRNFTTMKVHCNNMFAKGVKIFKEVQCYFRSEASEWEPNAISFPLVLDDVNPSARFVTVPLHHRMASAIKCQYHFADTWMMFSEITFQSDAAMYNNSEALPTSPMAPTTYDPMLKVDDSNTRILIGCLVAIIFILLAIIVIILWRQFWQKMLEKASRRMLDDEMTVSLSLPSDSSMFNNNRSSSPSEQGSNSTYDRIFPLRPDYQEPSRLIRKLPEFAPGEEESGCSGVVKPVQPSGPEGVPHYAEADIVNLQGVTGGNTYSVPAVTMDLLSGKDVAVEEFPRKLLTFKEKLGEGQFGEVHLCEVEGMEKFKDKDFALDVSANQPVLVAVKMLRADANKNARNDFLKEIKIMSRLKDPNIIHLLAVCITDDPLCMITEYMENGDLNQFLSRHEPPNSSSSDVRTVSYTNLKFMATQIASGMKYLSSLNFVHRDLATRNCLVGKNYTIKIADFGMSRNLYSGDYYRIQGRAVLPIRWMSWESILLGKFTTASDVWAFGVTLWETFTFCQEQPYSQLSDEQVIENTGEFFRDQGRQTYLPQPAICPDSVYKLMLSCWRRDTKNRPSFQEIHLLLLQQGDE
Protocol: (§1) A proprietary radiometric protein kinase assay (33PanQuinase® Activity Assay) developed by ProQuinase GmbH (Freiburg, Germany) was used for measuring the kinase activity of selected protein kinases. All assays were performed in FlashPlates™ wells 96 Perkin Elmer (Boston, Mass., USA) in a reaction volume of 50 μl. The reaction mixture was obtained in 4 steps in the following order: • 1. 10 μl of a solution of non-radioactive ATP in water; • 2. 25 μl of assay buffer/[γ-^33P]-ATP mixture • 3. 5 μl of test sample in 10% DMSO • 4. 10 μl of enzyme/substrate mixture
(§2) All protein kinases provided by ProQinase were expressed in Sf9 insect cells or in E. coli as recombinant GST-fusion proteins or His-tagged proteins, either as full-length or enzymatically active fragments. […] Kinases from external vendors (CAR=Carna Biosciences Inc.; INV=Life Technologies (Invitrogen Corporation); MIL=Merck-Millipore (Millipore Corporation), were expressed, purified and quality-controlled by virtue of the vendors readings.
(§3) A stock solution of compound of formula (I) was diluted to 5×10-04M/100% DMSO. […] Incorporation of 33Pi (counting of “cpm”) was determined with a microplate scintillation counter (Microbeta, Wallac). […]
(§4) Based on each 10 corresponding residual activities, IC50 values were calculated using Prism 5.04 for Windows (Graphpad, San Diego, Calif.). […]

RET wild-type = molecular target: T2, RET wild-type (Homo sapiens, UniProt P07949); assay: Radiometric protein kinase assay (33PanQuinase Activity Assay), RET wild-type; format: biochemical; settings: ATP 1.0 μM
T2 construct: either as full-length or enzymatically active fragments; purchased ProQinase GmbH (Freiburg, Germany)
T2 sequence (P07949 29-1114): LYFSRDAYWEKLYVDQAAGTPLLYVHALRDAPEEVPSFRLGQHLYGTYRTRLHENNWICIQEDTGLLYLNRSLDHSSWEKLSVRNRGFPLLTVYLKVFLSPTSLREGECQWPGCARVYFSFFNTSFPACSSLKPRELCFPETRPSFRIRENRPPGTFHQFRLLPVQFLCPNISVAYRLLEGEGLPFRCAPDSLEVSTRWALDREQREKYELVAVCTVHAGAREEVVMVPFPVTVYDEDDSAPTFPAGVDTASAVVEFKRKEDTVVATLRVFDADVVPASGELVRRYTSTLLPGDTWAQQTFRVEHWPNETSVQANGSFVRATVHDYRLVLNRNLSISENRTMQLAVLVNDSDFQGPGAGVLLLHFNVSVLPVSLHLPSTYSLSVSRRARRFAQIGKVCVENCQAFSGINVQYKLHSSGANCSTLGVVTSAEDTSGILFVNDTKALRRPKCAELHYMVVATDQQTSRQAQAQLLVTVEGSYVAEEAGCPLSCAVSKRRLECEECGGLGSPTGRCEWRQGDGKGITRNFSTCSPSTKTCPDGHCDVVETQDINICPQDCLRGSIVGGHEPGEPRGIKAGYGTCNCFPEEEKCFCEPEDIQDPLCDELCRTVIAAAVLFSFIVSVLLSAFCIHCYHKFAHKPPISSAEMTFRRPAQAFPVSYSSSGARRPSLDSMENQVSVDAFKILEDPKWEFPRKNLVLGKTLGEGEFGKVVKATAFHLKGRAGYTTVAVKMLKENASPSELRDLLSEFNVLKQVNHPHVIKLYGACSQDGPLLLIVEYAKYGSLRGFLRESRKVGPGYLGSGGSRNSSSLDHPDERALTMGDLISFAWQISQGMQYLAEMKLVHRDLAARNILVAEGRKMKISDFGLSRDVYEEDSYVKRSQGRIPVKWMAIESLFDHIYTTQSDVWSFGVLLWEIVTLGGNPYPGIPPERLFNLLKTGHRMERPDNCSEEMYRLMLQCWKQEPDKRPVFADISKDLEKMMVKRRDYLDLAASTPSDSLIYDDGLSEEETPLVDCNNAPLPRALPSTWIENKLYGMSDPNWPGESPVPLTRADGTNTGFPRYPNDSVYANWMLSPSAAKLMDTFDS
Protocol: as §1, §2, §3, §4

Question: What does the source list for `CN1CCN(c2ccc(C(=O)Nc3n[nH]c4cc(-c5ccc(O)cc5)c(Cc5cc(F)cc(F)c5)cc34)c(NC3CCOCC3)c2)CC1` [Example 3, N-[5-[(3,5-difluorophenyl)methyl]-6-(4-hydroxyphenyl)-1H-indazol-3-yl]-4-(4-methylpiperazin-1-yl)-2-(tetrahydropyran-4-ylamino)benzamide]?
Answer: IC50 (DDR2 wild-type): 150 nM; IC50 (RET wild-type): 120 nM
